Assay results: patent US20020071842A1, “Soluble CD1 compositions and uses thereof” (priority 2000, published 2002)
“Also recorded” adds a separate entry of the source.

Key:
Test in all cases: Plate-bound mCD1d fusion protein hybridoma stimulation assay (IL-2 ELISA)
Type in all cases: cell-based, mouse
24.8.A hybridoma = conditions: for IL-2 response to mCD1d fusion protein pre-treated with purified or synthetic lipid: compared to untreated or buffer treated fusion protein; for IL-2 secretion: 24.8 A NKT hybridoma, plate-bound mCD1d-IgGFc2a fusion protein preincubated with lipid antigen
How it was run: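 Protein A plates were loaded with 400-600 ng/well mCD1d fusion protein, then given lipid antigen (40:1 molar ratio to fusion protein unless specified) in PBS pH 7.2 for 24-48 h at 37 °C. After washing, 1×10^5 hybridoma cells/well were added for 16-20 h at 37 °C. Secreted IL-2 measured by sandwich ELISA against a murine IL-2 standard curve.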

KT/22 hybridoma = conditions: KT/22 NKT hybridoma; plate-bound mCD1d-IgGFc2a fusion protein preincubated with lipid antigen
How it was run: (§1)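 Protein A plates loaded with 400-600 ng/well mCD1d fusion protein plus lipid antigen (default 40:1 molar ratio), 24-48 hr at 37 °C, washed; hybridomas added at 1×10^5 cells/well for 16-20 hr. Supernatant IL-2 quantified by sandwich ELISA against murine IL-2 standard curve.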

Vβ/9 hybridoma = conditions: Vβ/9 NKT hybridoma; plate-bound mCD1d-IgGFc2a fusion protein preincubated with lipid antigen
How it was run: as §1

14S.7.N hybridoma = conditions: 14S.7.N diverse TCR hybridoma; plate-bound mCD1d-IgGFc2a fusion protein preincubated with lipid antigen
How it was run: as §1

Compound	IL-2 response to mCD1d fusion protein pre-treated with purified or synthetic lipid (24.8.A hybridoma; 24.8.A hybridoma)	IL-2 secretion (24.8.A hybridoma)	IL-2 secretion (KT/22 hybridoma)	IL-2 secretion (Vβ/9 hybridoma)	IL-2 secretion (14S.7.N hybridoma)	IL-2 produced in the presence of the 19G11 anti-mCD1d mAb (24.8.A hybridoma; 24.8.A hybridoma, representative experiment, 19G11 blocking antibody included)	mean IL-2 secreted (24.8.A hybridoma; 24.8.A hybridoma, representative experiment, mCD1d fusion protein pre-treated with antigen)	reduction of IL-2 secretion by phospholipase treatment of the antigen (24.8.A hybridoma; PI treated with PLC or PLD prior to pre-incubation with the mCD1d fusion protein)
CCCCCCCCCCCCCCCCCCCCCCCCCC(=O)N[C@@H](CO[C@H]1O[C@H](CO)[C@H](O)[C@H](O)[C@H]1O)[C@H](O)[C@H](O)CCCCCCCCCCCCCC [α-GalCer, α-galactosylceramide]	only a slightly enhanced response; also recorded: little IL-2 was secreted	+ (“+” indicates 50-250 pg/ml)	+++ (“+++” indicates greater than 1000 pg/ml IL-2)	++ (“++” indicates 250-1000 pg/ml)	0 (A “0” indicates a mean of less than 50 pg/ml IL-2 was secreted)			
phosphatidylinositol [PI]	marked increase of IL-2 production; also recorded: significantly enhanced IL-2 release	+++ (“+++” indicates greater than 1000 pg/ml IL-2)	+ (“+” indicates 50-250 pg/ml)	0 (A “0” indicates a mean of less than 50 pg/ml IL-2 was secreted)	+ (“+” indicates 50-250 pg/ml)	no detectable IL-2	4,746 pg/ml	approximately 70%
unglycosylated ceramide		+ (“+” indicates 50-250 pg/ml)	0 (A “0” indicates a mean of less than 50 pg/ml IL-2 was secreted)	0 (A “0” indicates a mean of less than 50 pg/ml IL-2 was secreted)	0 (A “0” indicates a mean of less than 50 pg/ml IL-2 was secreted)			
β-galactosylceramide [β-GalCer]		+ (“+” indicates 50-250 pg/ml)	0 (A “0” indicates a mean of less than 50 pg/ml IL-2 was secreted)	0 (A “0” indicates a mean of less than 50 pg/ml IL-2 was secreted)	0 (A “0” indicates a mean of less than 50 pg/ml IL-2 was secreted)			
